# Read-outs that look alike come from different tables or passages of the source. Where a SMILES comes first, the peptide text is derived from it. The star is where a group is joined. Benzoyl(4-Ph) = O=C(c1ccc(-c2ccccc2)cc1)*; Butanoyl(4-Ph) = O=C(CCCc1ccccc1)*; Hydrocinnamoyl = O=C(CCc1ccccc1)*; PhAc = O=C(Cc1ccccc1)*; X2 = O=C(C#Cc1ccccc1)*; Bz = O=C(c1ccccc1)*
# What was measured:
# S. aureus ATCC 25923 = type: cell-based, Staphylococcus aureus
# Description: (§1) Tests of the antibacterial activity were carried out as we just described. Briefly, for assays, the following strains of ESKAPE bacteria were chosen: Acinetobacter baumannii ATCC BAA-1605, Enterococcus faecium ATCC 700221, Klebsiella aerogenes ATCC 13048 (formerly Enterobacter aerogenes), Klebsiella pneumoniae ATCC 700603, and Pseudomonas aeruginosa ATCC 9027. Moreover, the reference strains of Staphylococcus aureus were used: S. aureus ATCC 25923, S. aureus ATCC 6538, S. aureus ATCC 33591 (MRSA), S. aureus ATCC 9144, and S. aureus ATCC 12598. Before experiments, all the strains were stored at −80 °C in Roti®-Store cryo vials (Carl Roth GmbH, Karlsruhe, Germany). To evaluate the activity of the compounds, bacteria were transferred into fresh Mueller–Hinton medium (Becton Dickinson, Warszawa, Poland) and incubated for 24 h at 37 °C. In the next step, bacterial inoculums were seeded on Mueller–Hinton agar plates (BioMaxima SA, Lublin, Poland) and incubated again for 24 h. The MIC values were determined using the broth microdilution method according to the Clinical and Laboratory Standards Institute Protocol. The initial inoculums of bacteria (0.5 × 10^5 colony forming units (CFU)/mL) prepared in Mueller–Hinton broth were exposed to the ranging concentrations of peptides (1–512 µg/mL). The experiments were conducted on 96-well microtiter plates, with a final volume of 100 µL. The inoculum densities were checked spectrophotometrically (Multiskan™ GO Microplate Spectrophotometer, Thermo Scientific, Waltham, MA, USA) at 600 nm. The results were read after incubation for 18 h at 37 °C. The MIC values were the lowest concentration at which a visible growth of microorganisms was inhibited. All experiments were conducted in triplicate. Moreover, positive (growth) and negative (sterility) controls were included.
# S. aureus ATCC 9144 = type: cell-based, Staphylococcus aureus
# Description: as §1
# S. aureus ATCC 6538 = type: cell-based, Staphylococcus aureus
# Description: as §1
# S. aureus ATCC 12598 = type: cell-based, Staphylococcus aureus
# Description: as §1
# [1] = test system: S. aureus ATCC 33591 (MRSA); type: cell-based, Staphylococcus aureus
# Description: as §1
# [2] = test system: Pseudomonas aeruginosa ATCC 9027; type: cell-based
# Description: as §1
# [3] = test system: Enterococcus faecium ATCC 700221; type: cell-based
# Description: as §1
# [4] = test system: Klebsiella aerogenes ATCC 13048; type: cell-based
# Description: as §1
# [5] = test system: Klebsiella pneumoniae ATCC 700603; type: cell-based
# Description: as §1
# [6] = test system: human red blood cells (hRBCs); assay: Hemolysis assay; conditions: 4% (v/v) erythrocytes in PBS, peptides 1–512 µg/mL, 1 h at 37 °C, hemoglobin at 540 nm
# Description: To facilitate a comparison of hemolytic activity between the analogs, MHC5 values were determined. MHC5 is the minimum hemolytic concentration of the compounds that caused the 5% hemolysis of hRBCs.
# Briefly, the fresh hRBCs with EDTA as anticoagulant were rinsed three times with PBS through centrifugation at 800× g for 10 min and resuspended in PBS. The serial dilution of peptides (1–512 µg/mL) was prepared in PBS on 96-well plates. Then, the stock RBCs solution was added to the plates to reach a final volume of 100 µL with a 4% concentration of erythrocytes (v/v). The control wells for 0 (RBCs in PBS) and 100% (RBCs in 1% Triton-X 100) hemolysis were also prepared. Then, the plates were incubated for 1 h at 37 °C and centrifuged at 800× g for 10 min at 4 °C (Sorvall ST 16R Centrifuge, Thermo Scientific, Waltham, MA, USA). After centrifugation, the supernatant was carefully transferred to new microtiter plates and the release of hemoglobin was measured at 540 nm (Multiskan™ GO Microplate Spectrophotometer, Thermo Scientific, Waltham, MA, USA). The percentage of hemolysis was calculated based on wells with 100% hemolysis.
# [7] = Mueller–Hinton broth, 0.5 × 10^5 CFU/mL, peptides 1–512 µg/mL, 18 h at 37 °C, triplicate
# [8] = MRSA, Mueller–Hinton broth, 0.5 × 10^5 CFU/mL, peptides 1–512 µg/mL, 18 h at 37 °C, triplicate
# [9] = 100% = 1% Triton-X 100, ≥ means less than 5% hemolysis up to 512 µg/mL
SMILES,MIC S. aureus 25923 (S. aureus ATCC 25923; [7]) [µg/mL],MIC S. aureus 9144 (S. aureus ATCC 9144; [7]) [µg/mL],MIC S. aureus 6538 (S. aureus ATCC 6538; [7]) [µg/mL],MIC S. aureus 12598 (S. aureus ATCC 12598; [7]) [µg/mL],"MIC S. aureus 33591 [1, 8] [µg/mL]","MIC P. aeruginosa [2, 7] [µg/mL]","MIC E. faecium [3, 7] [µg/mL]","MIC K. aerogenes [4, 7] [µg/mL]","MIC K. pneumoniae [5, 7] [µg/mL]","MHC5 (minimum hemolytic concentration causing 5% hemolysis of hRBCs) [6, 9] [µg/mL]","MIC S. aureus 25923 (S. aureus ATCC 25923; ATCC 25923, 18 h) [µg/mL]","MIC S. aureus 9144 (S. aureus ATCC 9144; ATCC 9144, 18 h) [µg/mL]","MIC S. aureus 6538 (S. aureus ATCC 6538; ATCC 6538, 18 h) [µg/mL]","MIC S. aureus 12598 (S. aureus ATCC 12598; ATCC 12598, 18 h) [µg/mL]","MIC S. aureus 33591 ([1]; ATCC 33591, 18 h) [µg/mL]","MIC P. aeruginosa ([2]; ATCC 9027, 18 h) [µg/mL]","MIC E. faecium ([3]; ATCC 700221, 18 h) [µg/mL]","MIC K. aerogenes ([4]; ATCC 13048, 18 h) [µg/mL]","MIC K. pneumoniae ([5]; ATCC 700603, 18 h) [µg/mL]",MIC A. baumannii (18 h) [µg/mL],other results
"CC[C@H](C)[C@H](NC(=O)[C@H](CCCNC(=N)N)NC(=O)[C@H](CCC(N)=O)NC(=O)[C@@H](NC(=O)[C@@H](NC(=O)[C@H](CCCNC(=N)N)NC(=O)[C@H](CCCCN)NC(=O)c1ccccc1)[C@@H](C)CC)C(C)C)C(=O)N[C@@H](CCCCN)C(=O)N[C@@H](CC(=O)O)C(=O)N[C@@H](Cc1ccccc1)C(=O)N[C@@H](CC(C)C)C(=O)N[C@@H](CCCNC(=N)N)C(N)=O [XV, Benzoic acid-KR12-NH2] (Bz-KRIVQRIKDFLR-NH2)",64,32,8,32,64,128,8,64,64,≥512,–,–,–,–,–,–,–,–,–,–,MIC A. baumannii [7]: 32 µg/mL
"CC[C@H](C)[C@H](NC(=O)[C@H](CCCNC(=N)N)NC(=O)[C@H](CCC(N)=O)NC(=O)[C@@H](NC(=O)[C@@H](NC(=O)[C@H](CCCNC(=N)N)NC(=O)[C@H](CCCCN)NC(=O)Cc1ccccc1)[C@@H](C)CC)C(C)C)C(=O)N[C@@H](CCCCN)C(=O)N[C@@H](CC(=O)O)C(=O)N[C@@H](Cc1ccccc1)C(=O)N[C@@H](CC(C)C)C(=O)N[C@@H](CCCNC(=N)N)C(N)=O [XVI, Phenylacetic acid-KR12-NH2] (PhAc-KRIVQRIKDFLR-NH2)",128,32,16,32,64,128,8,64,64,256,–,–,–,–,–,–,–,–,–,–,MIC A. baumannii [7]: 32 µg/mL
"CC[C@H](C)[C@H](NC(=O)[C@H](CCCNC(=N)N)NC(=O)[C@H](CCC(N)=O)NC(=O)[C@@H](NC(=O)[C@@H](NC(=O)[C@H](CCCNC(=N)N)NC(=O)[C@H](CCCCN)NC(=O)CCc1ccccc1)[C@@H](C)CC)C(C)C)C(=O)N[C@@H](CCCCN)C(=O)N[C@@H](CC(=O)O)C(=O)N[C@@H](Cc1ccccc1)C(=O)N[C@@H](CC(C)C)C(=O)N[C@@H](CCCNC(=N)N)C(N)=O [XVII, 3-Phenylpropionic acid-KR12-NH2] (Hydrocinnamoyl-KRIVQRIKDFLR-NH2)",–,–,–,–,–,–,–,–,–,256,16,16,8,16,32,64,4,64,32,32,–
"CC[C@H](C)[C@H](NC(=O)[C@H](CCCNC(=N)N)NC(=O)[C@H](CCC(N)=O)NC(=O)[C@@H](NC(=O)[C@@H](NC(=O)[C@H](CCCNC(=N)N)NC(=O)[C@H](CCCCN)NC(=O)CCCc1ccccc1)[C@@H](C)CC)C(C)C)C(=O)N[C@@H](CCCCN)C(=O)N[C@@H](CC(=O)O)C(=O)N[C@@H](Cc1ccccc1)C(=O)N[C@@H](CC(C)C)C(=O)N[C@@H](CCCNC(=N)N)C(N)=O [XVIII, 4-Phenylbutanoic acid-KR12-NH2] ({Butanoyl(4-Ph)}-KRIVQRIKDFLR-NH2)",–,–,–,–,–,–,–,–,–,–,32,8,32,32,16,64,8,32,16,4,MHC5 (minimum hemolytic concentration causing 5% hemolysis of hRBCs) ([6]; fresh batch of blood (footnote a)): 128 ^a µg/mL
"CC[C@H](C)[C@H](NC(=O)[C@H](CCCNC(=N)N)NC(=O)[C@H](CCC(N)=O)NC(=O)[C@@H](NC(=O)[C@@H](NC(=O)[C@H](CCCNC(=N)N)NC(=O)[C@H](CCCCN)NC(=O)C#Cc1ccccc1)[C@@H](C)CC)C(C)C)C(=O)N[C@@H](CCCCN)C(=O)N[C@@H](CC(=O)O)C(=O)N[C@@H](Cc1ccccc1)C(=O)N[C@@H](CC(C)C)C(=O)N[C@@H](CCCNC(=N)N)C(N)=O [XX, Phenylpropiolic acid-KR12-NH2] (X2-KRIVQRIKDFLR-NH2)",–,–,–,–,–,–,–,–,–,256,128,16,8,32,32,64,4,16,32,32,–
"CC[C@H](C)[C@H](NC(=O)[C@H](CCCNC(=N)N)NC(=O)[C@H](CCC(N)=O)NC(=O)[C@@H](NC(=O)[C@@H](NC(=O)[C@H](CCCNC(=N)N)NC(=O)[C@H](CCCCN)NC(=O)c1ccc(-c2ccccc2)cc1)[C@@H](C)CC)C(C)C)C(=O)N[C@@H](CCCCN)C(=O)N[C@@H](CC(=O)O)C(=O)N[C@@H](Cc1ccccc1)C(=O)N[C@@H](CC(C)C)C(=O)N[C@@H](CCCNC(=N)N)C(N)=O [XXI, 4-Phenylbenzoic acid-KR12-NH2] ({Benzoyl(4-Ph)}-KRIVQRIKDFLR-NH2)",–,–,–,–,–,–,–,–,–,32,8,4,2,4,4,16,2,4,8,8,–
